The source of these data is ChEMBL document CHEMBL4118188, “A small diversity library of α-methyl amide analogs of sulindac for probing anticancer structure-activity relationships” (Bioorg Med Chem Lett, 2018).

What is called CC50 is the concentration at which the toxic effect on the cells reaches its halfway point. The low end stands for harm at low concentration, the high end for better tolerance by the cells.

Where only a bound is given, the exact number is not on record here.

For the first experiment, the system named is HT-29. Briefly: Growth inhibition of human HT-29 cells measured after 72 hrs by Celltiter-Glo reagent based assay. In kind it is functional. The note with it: HT-29, 72 h. In general terms: Cellular ATP, detected with luciferase, serves as a proxy for viable cell number.
The molecule `CSc1ccc(/C=C2/C(C)=C(CC(=O)NCCN(C)C)c3cc(F)ccc32)cc1` displayed a CC50 of 0.65 µM.

Turning to `COC(=O)[C@H](Cc1c[nH]cn1)NC(=O)C(C)C1=C(C)/C(=C/c2ccc(SC)cc2)c2ccc(F)cc21` (stereo not given in full), the CC50 was found to be 6.62 µM.

`COC(=O)[C@@H](Cc1c[nH]cn1)NC(=O)C(C)C1=C(C)/C(=C/c2ccc(SC)cc2)c2ccc(F)cc21` (stereo not given in full) displayed a CC50 of 10.7 µM.

Molecule `CNCCCN(C)C(=O)C(C)C1=C(C)/C(=C/c2ccc(SC)cc2)c2ccc(F)cc21` (stereo not given) registered a CC50 of 1.98 µM.

As for `CSc1ccc(/C=C2/C(C)=C(C(C)C(=O)N3CCN(CCCN(C)C)CC3)c3cc(F)ccc32)cc1` (stereo not given), the CC50 was 1.5 µM.

In turn, `CCN1CCC[C@H]1CNC(=O)C(C)C1=C(C)/C(=C/c2ccc(SC)cc2)c2ccc(F)cc21` (stereo not given in full) had a CC50 of 1.1 µM.

Molecule `CCNCCN(CC)C(=O)C(C)C1=C(C)/C(=C/c2ccc(SC)cc2)c2ccc(F)cc21` (stereo not given) came in with a CC50 of 1.3 µM.

Molecule `CSc1ccc(/C=C2/C(C)=C(C(C)C(=O)NCc3ccccc3)c3cc(F)ccc32)cc1` (stereo not given) yielded a CC50 of 22.9 µM.

The molecule `CSc1ccc(/C=C2/C(C)=C(C(C)C(=O)NCc3ccco3)c3cc(F)ccc32)cc1` (stereo not given) came in with a CC50 of 11.2 µM.

Consider `CC1=C(C(C)C(=O)NCc2ccco2)c2cc(F)ccc2/C1=C\c1ccc([S+](C)[O-])cc1` (stereo not given), for which the CC50 was > 50 µM.

`CSc1ccc(/C=C2/C(C)=C(C(C)C(=O)N(C)CCN(C)C)c3cc(F)ccc32)cc1` (stereo not given) registered a CC50 of 1.43 µM.

`CSc1ccc(/C=C2/C(C)=C(C(C)C(=O)NCCN3CCCCC3)c3cc(F)ccc32)cc1` (stereo not given) showed a CC50 of 2.03 µM.

For `CCN(CC)CCN(C)C(=O)C(C)C1=C(C)/C(=C/c2ccc(SC)cc2)c2ccc(F)cc21` (stereo not given), the CC50 turned out to be 2.22 µM.

Take `CCN(CC)CCN(CC)C(=O)C(C)C1=C(C)/C(=C/c2ccc(SC)cc2)c2ccc(F)cc21` (stereo not given): the CC50 was found to be 2.31 µM.

Take `COC(=O)[C@H](Cc1c[nH]cn1)NC(=O)C(C)C1=C(C)/C(=C/c2ccc([S+](C)[O-])cc2)c2ccc(F)cc21` (stereo not given in full): the CC50 was > 50 µM.

Take `CSc1ccc(/C=C2/C(C)=C(C(C)C(=O)NCCCN(C)C)c3cc(F)ccc32)cc1` (stereo not given): the midpoint of cytotoxicity, the CC50, lay at 2.58 µM.

The molecule `CNCCN(C)C(=O)C(C)C1=C(C)/C(=C/c2ccc(SC)cc2)c2ccc(F)cc21` (stereo not given) had a CC50 of 1.31 µM.

The molecule `CSc1ccc(/C=C2/C(C)=C(C(C)C(=O)N3CCC(N4CCCCC4)CC3)c3cc(F)ccc32)cc1` (stereo not given) showed a CC50 of 1.89 µM.

`CC1=C(C(C)C(=O)NCc2ccccc2)c2cc(F)ccc2/C1=C\c1ccc([S+](C)[O-])cc1` (stereo not given) came in with a CC50 of 17.2 µM.

Molecule `CCNCCCN(CC)C(=O)C(C)C1=C(C)/C(=C/c2ccc(SC)cc2)c2ccc(F)cc21` (stereo not given) came in with a CC50 of 2.01 µM.

Another experiment concerns PC-3. In words: Growth inhibition of human PC3 cells measured after 72 hrs by Celltiter-Glo reagent based assay. It is filed as functional. Particulars: PC-3, 72 h.
With `CSc1ccc(/C=C2/C(C)=C(CC(=O)NCCN(C)C)c3cc(F)ccc32)cc1`, the CC50 was 3.12 µM.

Consider `COC(=O)[C@H](Cc1c[nH]cn1)NC(=O)C(C)C1=C(C)/C(=C/c2ccc(SC)cc2)c2ccc(F)cc21` (stereo not given in full), for which it took 14.4 µM to reach half-maximal cytotoxicity (CC50).

The molecule `COC(=O)[C@@H](Cc1c[nH]cn1)NC(=O)C(C)C1=C(C)/C(=C/c2ccc(SC)cc2)c2ccc(F)cc21` (stereo not given in full) displayed a CC50 of 16.8 µM.

Take `CNCCCN(C)C(=O)C(C)C1=C(C)/C(=C/c2ccc(SC)cc2)c2ccc(F)cc21` (stereo not given): the midpoint of cytotoxicity, the CC50, lay at 4.96 µM.

Consider `CSc1ccc(/C=C2/C(C)=C(C(C)C(=O)N3CCN(CCCN(C)C)CC3)c3cc(F)ccc32)cc1` (stereo not given), for which the midpoint of cytotoxicity, the CC50, lay at 4.14 µM.

Consider `CCN1CCC[C@H]1CNC(=O)C(C)C1=C(C)/C(=C/c2ccc(SC)cc2)c2ccc(F)cc21` (stereo not given in full), for which the CC50 worked out at 4.24 µM.

On to `CCNCCN(CC)C(=O)C(C)C1=C(C)/C(=C/c2ccc(SC)cc2)c2ccc(F)cc21` (stereo not given), for which the CC50 is 3.26 µM.

As to `CSc1ccc(/C=C2/C(C)=C(C(C)C(=O)NCc3ccccc3)c3cc(F)ccc32)cc1` (stereo not given), the CC50 was > 50 µM.

On to `CSc1ccc(/C=C2/C(C)=C(C(C)C(=O)NCc3ccco3)c3cc(F)ccc32)cc1` (stereo not given), for which it took 23.5 µM to reach half-maximal cytotoxicity (CC50).

Turning to `CC1=C(C(C)C(=O)NCc2ccco2)c2cc(F)ccc2/C1=C\c1ccc([S+](C)[O-])cc1` (stereo not given), the CC50 was > 50 µM.

The molecule `CSc1ccc(/C=C2/C(C)=C(C(C)C(=O)N(C)CCN(C)C)c3cc(F)ccc32)cc1` (stereo not given) gave a CC50 of 5.55 µM.

As to `CSc1ccc(/C=C2/C(C)=C(C(C)C(=O)NCCN3CCCCC3)c3cc(F)ccc32)cc1` (stereo not given), the CC50 came out at 5.06 µM.

The molecule `CCN(CC)CCN(C)C(=O)C(C)C1=C(C)/C(=C/c2ccc(SC)cc2)c2ccc(F)cc21` (stereo not given) came in with a CC50 of 7.27 µM.

In turn, `CCN(CC)CCN(CC)C(=O)C(C)C1=C(C)/C(=C/c2ccc(SC)cc2)c2ccc(F)cc21` (stereo not given) showed a CC50 of 6.59 µM.

For `COC(=O)[C@H](Cc1c[nH]cn1)NC(=O)C(C)C1=C(C)/C(=C/c2ccc([S+](C)[O-])cc2)c2ccc(F)cc21` (stereo not given in full), the cytotoxic concentration (CC50) is > 50 µM.

Take `CSc1ccc(/C=C2/C(C)=C(C(C)C(=O)NCCCN(C)C)c3cc(F)ccc32)cc1` (stereo not given): the CC50 came out at 7.24 µM.

Molecule `CNCCN(C)C(=O)C(C)C1=C(C)/C(=C/c2ccc(SC)cc2)c2ccc(F)cc21` (stereo not given) returned a CC50 of 4.06 µM.

On to `CSc1ccc(/C=C2/C(C)=C(C(C)C(=O)N3CCC(N4CCCCC4)CC3)c3cc(F)ccc32)cc1` (stereo not given), for which the CC50 turned out to be 4.36 µM.

For `CC1=C(C(C)C(=O)NCc2ccccc2)c2cc(F)ccc2/C1=C\c1ccc([S+](C)[O-])cc1` (stereo not given), the CC50 was determined as 15.7 µM.

With `CCNCCCN(CC)C(=O)C(C)C1=C(C)/C(=C/c2ccc(SC)cc2)c2ccc(F)cc21` (stereo not given), the midpoint of cytotoxicity, the CC50, lay at 4.6 µM.

For the next experiment, the system named is MDA-MB-231. Briefly: Growth inhibition of human MDA-MB-231 cells measured after 96 hrs by Celltiter-Glo reagent based assay. The note with it: MDA-MB-231, 96 h. It is filed as functional.
In turn, `CSc1ccc(/C=C2/C(C)=C(CC(=O)NCCN(C)C)c3cc(F)ccc32)cc1` yielded a CC50 of 2.67 µM.

Molecule `COC(=O)[C@H](Cc1c[nH]cn1)NC(=O)C(C)C1=C(C)/C(=C/c2ccc(SC)cc2)c2ccc(F)cc21` (stereo not given in full) gave a CC50 of 12.7 µM.

For `COC(=O)[C@@H](Cc1c[nH]cn1)NC(=O)C(C)C1=C(C)/C(=C/c2ccc(SC)cc2)c2ccc(F)cc21` (stereo not given in full), it took 15 µM to reach half-maximal cytotoxicity (CC50).

`CNCCCN(C)C(=O)C(C)C1=C(C)/C(=C/c2ccc(SC)cc2)c2ccc(F)cc21` (stereo not given) registered a CC50 of 3.83 µM.

Regarding `CSc1ccc(/C=C2/C(C)=C(C(C)C(=O)N3CCN(CCCN(C)C)CC3)c3cc(F)ccc32)cc1` (stereo not given), it took 3.06 µM to reach half-maximal cytotoxicity (CC50).

The molecule `CCN1CCC[C@H]1CNC(=O)C(C)C1=C(C)/C(=C/c2ccc(SC)cc2)c2ccc(F)cc21` (stereo not given in full) displayed a CC50 of 3.49 µM.

Regarding `CCNCCN(CC)C(=O)C(C)C1=C(C)/C(=C/c2ccc(SC)cc2)c2ccc(F)cc21` (stereo not given), the CC50 amounted to 2.51 µM.

Regarding `CSc1ccc(/C=C2/C(C)=C(C(C)C(=O)NCc3ccccc3)c3cc(F)ccc32)cc1` (stereo not given), the CC50 was > 50 µM.

The molecule `CSc1ccc(/C=C2/C(C)=C(C(C)C(=O)NCc3ccco3)c3cc(F)ccc32)cc1` (stereo not given) returned a CC50 of 26.1 µM.

With `CC1=C(C(C)C(=O)NCc2ccco2)c2cc(F)ccc2/C1=C\c1ccc([S+](C)[O-])cc1` (stereo not given), the CC50 was > 50 µM.

Consider `CSc1ccc(/C=C2/C(C)=C(C(C)C(=O)N(C)CCN(C)C)c3cc(F)ccc32)cc1` (stereo not given), for which half-maximal cytotoxicity (CC50) was put at 3.66 µM.

In turn, `CSc1ccc(/C=C2/C(C)=C(C(C)C(=O)NCCN3CCCCC3)c3cc(F)ccc32)cc1` (stereo not given) returned a CC50 of 5.32 µM.

Take `CCN(CC)CCN(C)C(=O)C(C)C1=C(C)/C(=C/c2ccc(SC)cc2)c2ccc(F)cc21` (stereo not given): the CC50 came out at 6.71 µM.

`CCN(CC)CCN(CC)C(=O)C(C)C1=C(C)/C(=C/c2ccc(SC)cc2)c2ccc(F)cc21` (stereo not given) had a CC50 of 5.98 µM.

Regarding `COC(=O)[C@H](Cc1c[nH]cn1)NC(=O)C(C)C1=C(C)/C(=C/c2ccc([S+](C)[O-])cc2)c2ccc(F)cc21` (stereo not given in full), the CC50 was > 50 µM.

Consider `CSc1ccc(/C=C2/C(C)=C(C(C)C(=O)NCCCN(C)C)c3cc(F)ccc32)cc1` (stereo not given), for which the CC50 came to 6.42 µM.

`CNCCN(C)C(=O)C(C)C1=C(C)/C(=C/c2ccc(SC)cc2)c2ccc(F)cc21` (stereo not given) displayed a CC50 of 3.21 µM.

For the molecule `CSc1ccc(/C=C2/C(C)=C(C(C)C(=O)N3CCC(N4CCCCC4)CC3)c3cc(F)ccc32)cc1` (stereo not given), the CC50 worked out at 4.3 µM.

`CC1=C(C(C)C(=O)NCc2ccccc2)c2cc(F)ccc2/C1=C\c1ccc([S+](C)[O-])cc1` (stereo not given) came in with a CC50 of 26 µM.

Take `CCNCCCN(CC)C(=O)C(C)C1=C(C)/C(=C/c2ccc(SC)cc2)c2ccc(F)cc21` (stereo not given): the midpoint of cytotoxicity, the CC50, lay at 3.97 µM.
